Reference: US12617762B2, “Carboxy derivatives with antiinflamatory properties” (Sitryx Therapeutics Limited, priority 2019, dated 2026)
Structures can show the parent of a compound that is named as a salt. Where two headings read alike, the source gives them in different places.

What was measured:
Assay type in all cases: cell-based
[1] = system: IL-1β cytokine output from THP-1s; experiment: THP-1 AlphaLISA IL-1β cytokine inhibition assay; details: for IC50: Homo sapiens; for IL-1β lowering, result in words: THP-1 IL-1β assay
Procedure, shortened: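 THP-1 cells differentiated with PMA for 72 h, pre-incubated with compound 30 min, then LPS-primed 24 h and Nigericin-stimulated 1 h (37° C./5% CO2). Supernatant IL-1β measured by AlphaLISA; percentage inhibition normalised to +LPS (high) and −LPS (low) plate controls.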

[2] = system: IL-6 cytokine output from THP-1s; experiment: THP-1 AlphaLISA IL-6 cytokine inhibition assay; details: Homo sapiens, LPS then nigericin
Protocol: The cytokine inhibition profiles of compounds of formula (I) were determined in a differentiated THP-1 cell assay. All assays were performed in RPMI-1640 growth medium (Gibco), supplemented with 10% fetal bovine serum (FBS; Gibco), 1% penicillin-streptomycin and 1% sodium pyruvate unless specified otherwise. The IL-1β cytokine inhibition assay was run in a background of differentiated THP-1 cells as described below. All reagents described were from Sigma-Aldrich unless specified otherwise. Compounds were prepared as 10 mM DMSO stocks.
THP-1 cells were expanded as a suspension up to 80% confluence in appropriate growth medium. Cells were harvested, suspended, and treated with an appropriate concentration of phorbol 12-myristate 13-acetate (PMA) over a 72 hr period (37° C./5% CO2).
Following 72 hrs of THP-1 cell incubation, cellular medium was removed and replaced with fresh growth media containing 1% of FBS. Working concentrations of compounds were prepared separately in 10% FBS treated growth medium and pre-incubated with the cells for 30 minutes (37° C./5% CO2). Following the 30 minute compound pre-incubation, THP-1s were treated with an appropriate concentration of LPS and the cells were subsequently incubated for a 24 hr period (37° C./5% CO2). An appropriate final concentration of Nigericin was then dispensed into the THP-1 plates and incubated for 1 hour (37° C./5% CO2) before THP-1 supernatants were harvested and collected in separate polypropylene 96-well holding plates.
Reagents from an IL-1β and IL-6 commercial kit (Perkin Elmer) were prepared and run according to the manufacturer's instructions. Subsequently, fluorescence signal detection in a microplate reader was measured (EnVision® Multilabel Reader, Perkin Elmer).
Percentage inhibition was calculated per cytokine by normalising the sample data to the high and low controls used within each plate (+/− LPS respectively).

[3] = system: NRF2 (nuclear factor erythroid 2-related factor 2); experiment: NRF2 +/-GSH activation assay (DiscoverX PathHunter NRF2 translocation kit, U2OS cells)
Procedure, shortened: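 U2OS PathHunter eXpress cells, 24 h post-plating, treated with compound ±GSH (+GSH arm: 30 min compound–GSH pre-incubation, 6 mM working GSH), then 6 h at 37 °C. NRF2 nuclear translocation read by enzyme-fragment-complementation chemiluminescence; % activation normalised to DMF high and untreated low controls.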

[4] = THP-1, differentiated THP-1 cells, LPS then nigericin
[5] = THP-1, differentiated THP-1 cells
[6] = +GSH, 30 minute compound-GSH pre-incubation, read-out: NRF2 activation +GSH EC50
[7] = +GSH, normalised to DMF high control
[8] = −GSH, U2OS PathHunter cells, 6 hours compound treatment, read-out: NRF2 activation −GSH EC50
[9] = −GSH, normalised to DMF high control

Structure (SMILES) | IC50 [1, 4] | IC50 [2, 5] | EC50 [3, 6] | NRF2 activation +GSH Emax [3, 7] | EC50 [3, 8] | NRF2 activation −GSH Emax [3, 9] | IC50 ([2]; differentiated THP-1 cells) | IL-1β lowering, result in words [1] | IC50 ([1]; THP-1, Table 3, head to head comparison of exo vs endo double bond compounds) | EC50 ([3]; −GSH, Table 5 exo vs endo comparison, read-out: −GSH EC50) | −GSH Emax ([3]; −GSH, normalised to DMF high control, Table 5 exo vs endo comparison)
C=C(Cc1cccc(Cc2ccc(Cl)cc2)n1)C(=O)O [Example 171, 2-((6-(4-chlorobenzyl)pyridin-2-yl)methyl)acrylic acid trifluoroacetic acid salt] | > 100 µM | > 100 µM | > 100 µM | 0% | > 100 µM | 5% | – | – | – | – | –
C=C(Cc1nc(C2(c3cc(Cl)c(Br)c(Cl)c3)CC2)no1)C(=O)O [Example 176, 2-((3-(1-(4-bromo-3,5-dichlorophenyl)cyclopropyl)-1,2,4-oxadiazol-5-yl)methyl)acrylic acid] | 3.2 µM | – | – | – | 5.4 µM | 222% | 7.6 µM | – | – | – | –
C=C(Cc1nc(C2(c3ccc(C)c(Cl)c3)CC2)no1)C(=O)O [Example 141, 2-((3-(1-(3-chloro-4-methylphenyl)cyclopropyl)-1,2,4-oxadiazol-5-yl)methyl)acrylic acid] | > 56.2 µM | – | 20.1 µM | 100% | 16.7 µM | 177% | 32.4 µM | – | – | – | –
C=C(Cc1nc(-c2cc(F)c(OCCCC)c(F)c2)no1)C(=O)O [Example 162, 2-((3-(4-butoxy-3,5-difluorophenyl)-1,2,4-oxadiazol-5-yl)methyl)acrylic acid] | > 46.4 µM | – | 1.3 µM | 269% | 1.1 µM | 232% | 6.4 µM | – | – | – | –
C=C(Cc1nc(C(C)(C)CCCCCC)no1)C(=O)O [Example 26, 2-((3-(2-methyloctan-2-yl)-1,2,4-oxadiazol-5-yl)methyl)acrylic acid] | 36.3 µM | 22.6 µM | 35.6 µM | 137% | 27.3 µM | 205% | – | – | – | – | –
C=C(C(=O)O)C1(c2nc(C(F)(F)c3ccc(C(F)(F)F)cc3)no2)CC1 [Example 173, 2-(1-(3-(difluoro(4-(trifluoromethyl)phenyl)methyl)-1,2,4-oxadiazol-5-yl)cyclopropyl)acrylic acid] | 7.6 µM | – | 61.1 µM | 2.1% | 52.5 µM | 64% | > 100 µM | – | – | – | –
C=C(Cc1nc(CCC#CCCCC)no1)C(=O)O [Example 57, 2-((3-(oct-3-yn-1-yl)-1,2,4-oxadiazol-5-yl)methyl)acrylic acid] | > 100 µM | 24.1 µM | 49.9 µM | 56% | 41.1 µM | 102% | – | not effective | – | – | –
C#CCCCCCCc1noc(CC(=C)C(=O)O)n1 [Example 35, 2-((3-(oct-7-yn-1-yl)-1,2,4-oxadiazol-5-yl)methyl)acrylic acid] | > 100 µM | 34.6 µM | 48.9 µM | 55% | 43.6 µM | 91% | – | not effective | – | – | –
C=C(Cc1nc(Cc2ccc(C3(C(F)(F)F)CC3)cc2)no1)C(=O)O [Example 48, 2-((3-(4-(1-(trifluoromethyl)cyclopropyl)benzyl)-1,2,4-oxadiazol-5-yl)methyl)acrylic acid] | 40.2 µM | 38.5 µM | 50.3 µM | 61% | 31 µM | 120% | – | – | – | – | –
C=C(Cc1cccc(C2(c3ccc(Cl)cc3)CC2)n1)C(=O)O [Example 175, 2-((6-(1-(4-chlorophenyl)cyclopropyl)pyridin-2-yl)methyl)acrylic acid] | 62.2 µM | – | > 100 µM | 4.0% | > 54.8 µM | 43% | 40.6 µM | – | – | – | –
C=C(Cc1nc(CCc2ccc(CC)cc2)no1)C(=O)O [Example 41, 2-((3-(4-ethylphenethyl)-1,2,4-oxadiazol-5-yl)methyl)acrylic acid] | 45.4 µM | 22.5 µM | 39.7 µM | 103% | 31.7 µM | 135% | – | – | – | – | –
C=C(Cc1ncc(CCCCCCCC)s1)C(=O)O [Example 55, 2-((5-octylthiazol-2-yl)methyl)acrylic acid] | 14.9 µM | 4.2 µM | 17.8 µM | 163% | 13.3 µM | 276% | – | – | – | – | –
C=C(Cc1nc(C(C)(C)c2ccc(Cl)cc2)no1)C(=O)O [Example 30, 2-((3-(2-(4-chlorophenyl)propan-2-yl)-1,2,4-oxadiazol-5-yl)methyl)acrylic acid] | 53.3 µM | > 100 µM | > 100 µM | 12% | > 100 µM | 36% | – | not effective | – | – | –
C/C(=C\c1nc(C2(c3ccc(S(F)(F)(F)(F)F)cc3)CC2)no1)C(=O)O [Example 169] | > 31.6 µM | – | > 100 µM | 15.4% | > 100 µM | 43% | 20.2 µM | – | > 31.6 µM | > 100 µM | 43%
C=C(Cc1nc(CCCCCC(F)(F)CC(F)(F)F)no1)C(=O)O [Example 87, 2-((3-(6,6,8,8,8-pentafluorooctyl)-1,2,4-oxadiazol-5-yl)methyl)acrylic acid] | > 100 µM | 31.7 µM | 48.6 µM | 70% | 41.4 µM | 95% | – | not effective | – | – | –
C=C(Cc1ncc(CCCCCCCC)cn1)C(=O)O [Example 106] | 67.8 µM | – | 24.6 µM | 101% | 18.6 µM | 143% | 39.3 µM | – | – | – | –
C=C(C(=O)O)C(C)(C)c1nc(C2(c3ccc(C(F)(F)F)cc3)CC2)no1 [Example 172] | 5.1 µM | – | > 100 µM | 7.6% | > 100 µM | 0% | 67.5 µM | – | – | – | –
